According to patent US8580829B2 (Boehringer Ingelheim International GmbH, priority 2010, dated 2013):
Like-named read-outs stand apart in the source and are kept apart here.

Assays:
[1] = target: T1, recombinant human FLAP protein (Homo sapiens, UniProt P20292); assay: FLAP binding assay (Scintillation Proximity Assay, displacement of [125I]L-691,831); settings: recombinant human FLAP membranes, [125I]L-691,831 probe; read-out: FLAP SPA IC50
T1 construct: made in house; host or cells: Sf9 insect cells (100,000 x g membrane fraction)
T1 sequence (P20292 1-161): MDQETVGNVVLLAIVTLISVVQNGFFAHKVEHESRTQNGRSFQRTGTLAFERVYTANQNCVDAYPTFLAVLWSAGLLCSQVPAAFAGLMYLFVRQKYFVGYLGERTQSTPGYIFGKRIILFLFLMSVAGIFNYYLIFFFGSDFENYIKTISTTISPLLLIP
Outline: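 WGA scintillation proximity beads were stirred 1 h with 5 μg of FLAP-containing membrane protein. The membranes came from baculovirus Sf9 cells, Dounce-lysed and spun to a 100,000×g pellet in buffer at pH 7.5.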

[2] = system: synthesis of LTB4 in human whole blood; assay: human whole blood LTB4 production inhibition assay; assay type: cell-based; settings: heparinized human whole blood, calcimycin 20 μM, read-out: hWB LTB4 IC50
Outline: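 LTB4 levels in plasma were measured by antibody-based HTRF after heparinized human whole blood, pretreated with compound (15 min, 37° C), was challenged with 20 μM calcimycin for 30 min at 37° C.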

Structure (SMILES)	IC50 [1] [nM]	IC50 ([2]; Homo sapiens) [nM]	IC50 [2] [nM]
Nc1ncc(-c2ccc(C3(c4noc(-c5cnc(N6CCC[C@H]6CO)cn5)n4)CCC3)cc2)cn1 [Example 194, {(S)-1-[5-(3-{1-[4-(2-Amino-pyrimidin-5-yl)-phenyl]-cyclobutyl}-1,2,4-oxadiazol-5-yl)-pyrazin-2-yl]-pyrrolidin-2-yl}-methanol]	3	85	
COc1ccc(-c2nc(C3(c4ccc(-c5cnc(N)nc5)cc4)CCC3)no2)cc1 [Example 48, 5-(4-{1-[5-(4-Methoxy-phenyl)-1,2,4-oxadiazol-3-yl]-cyclobutyl}-phenyl)-pyrimidin-2-ylamine]	2.5	430	
Cn1cc(-c2nc(C3(c4ccc(-c5ccc(N)nn5)cc4)CCC3)no2)cn1 [Example 258, 6-(4-{1-[5-(1-Methyl-1H-pyrazol-4-yl)-[1,2,4]oxadiazol-3-yl]-cyclobutyl}-phenyl)-pyridazin-3-ylamine]	73	610	
Nc1ncc(-c2ccc(C3(c4noc(-c5ccc(N6CCC[C@@H]6CO)nc5)n4)CCC3)cc2)cn1 [Example 102, {(R)-1-[5-(3-{1-[4-(2-Amino-pyrimidin-5-yl)-phenyl]-cyclobutyl}-1,2,4-oxadiazol-5-yl)-pyridin-2-yl]-pyrrolidin-2-yl}-methanol]	2.5	180	
Cc1ccc(-c2nc(C3(c4ccc(-c5cnc(N)nc5)cc4)CCCC3)no2)cn1 [Example 155, 5-(4-{1-[5-(6-Methyl-pyridin-3-yl)-1,2,4-oxadiazol-3-yl]-cyclopentyl}-phenyl)-pyrimidin-2-ylamine]	2.8	400	
Nc1ncc(-c2ccc(C3(c4noc(-c5cncn5C5COC5)n4)CCC3)cc2)cn1 [Example 264, 5-(4-{1-[5-(3-Oxetan-3-yl-3H-imidazol-4-yl)-[1,2,4]oxadiazol-3-yl]-cyclobutyl}-phenyl)-pyrimidin-2-ylamine]	8.3	280	
Nc1ncc(-c2ccc(C3(c4noc(N5CCCCC5)n4)CCC3)cc2)cn1 [Example 80, 5-{4-[1-(5-Piperidin-1-yl-1,2,4-oxadiazol-3-yl)-cyclobutyl]-phenyl}-pyrimidin-2-ylamine]	6.5	390	
Nc1ncc(-c2ccc(C3(c4noc(-c5ccc[nH]c5=O)n4)CCC3)cc2)cn1 [Example 173, 3-(3-{1-[4-(2-amino-pyrimidin-5-yl)-phenyl]-cyclobutyl}-1,2,4-oxadiazol-5-yl)-1H-pyridin-2-one]	2.9	> 5000	
Cc1n[nH]c(C)c1Cc1nc(C2(c3ccc(-c4cnc(N)nc4)cc3)CCC2)no1 [Example 279]	29	> 5000	
COc1ccc(-c2nc(C3(c4ccc(-c5cnc(N)nc5)cc4)CCC3)no2)cc1OC [Example 50, 5-(4-{1-[5-(3,4-Dimethoxy-phenyl)-1,2,4-oxadiazol-3-yl]-cyclobutyl}-phenyl)-pyrimidin-2-ylamine]	4.4	490	
Nc1ncc(-c2ccc(C3(c4noc(-c5ccc(N6CC[C@H](O)C6)nc5)n4)CCC3)cc2)cn1 [Example 105, (S)-1-[5-(3-{1-[4-(2-Amino-pyrimidin-5-yl)-phenyl]-cyclobutyl}-1,2,4-oxadiazol-5-yl)-pyridin-2-yl]-pyrrolidin-3-ol]	1.9	78	
COC(=O)[C@@H]1CN(c2cnc(-c3nc(C4(c5ccc(-c6cnc(N)nc6)cc5)CCC4)no3)cn2)CCN1 [Example 309, (S)-5′-(3-{1-[4-(2-Amino-pyrimidin-5-yl)-phenyl]-cyclobutyl}-1,2,4-oxadiazol-5-yl)-3,4,5,6-tetrahydro-2H-1,2′-bipyrazinyl-3-carboxylic acid methyl ester]	5.7		760
Nc1ncc(-c2ccc(C3(c4noc(-c5cccc(S(N)(=O)=O)c5)n4)CCC3)cc2)cn1 [Example 47, 3-(3-{1-[4-(2-Amino-pyrimidin-5-yl)-phenyl]-cyclobutyl}-1,2,4-oxadiazol-5-yl)-benzenesulfonamide]	15	2400	
Nc1ncc(-c2ccc(C3(c4noc(-c5ccc(N6CCS(=O)(=O)CC6)nc5)n4)CCC3)cc2)cn1 [Example 107, 5-[4-(1-{5-[6-(1,1-Dioxo-1λ^6-thiomorpholin-4-yl)-pyridin-3-yl]-1,2,4-oxadiazol-3-yl}-cyclobutyl)-phenyl]-pyrimidin-2-ylamine]	1.4	98	
COc1cc(-c2nc(C3(c4ccc(-c5cnc(N)nc5)cc4)CCC3)no2)ccc1O [Example 98, 4-(3-{1-[4-(2-Amino-pyrimidin-5-yl)-phenyl]-cyclobutyl}-1,2,4-oxadiazol-5-yl)-2-methoxy-phenol]	2.3	110	

Further lines, results first:

IC50 [1] [nM]	IC50 ([2]; Homo sapiens) [nM]	IC50 [2] [nM]	Structure (SMILES)
3.6	47		CN(C)CCn1cc(-c2nc(C3(c4ccc(-c5cnc(N)nc5)cc4)CCC3)no2)cn1 [Example 240, 5-[4-(1-{5-[1-(2-Dimethylamino-ethyl)-1H-pyrazol-4-yl]-[1,2,4]oxadiazol-3-yl}-cyclobutyl)-phenyl]-pyrimidin-2-ylamine]
6	410		CC(=O)NCCn1cc(-c2nc(C3(c4ccc(-c5cnc(N)nc5)cc4)CCC3)no2)cn1 [Example 229, N-{2-[4-(3-{1-[4-(2-Amino-pyrimidin-5-yl)-phenyl]-cyclobutyl}-[1,2,4]oxadiazol-5-yl)-pyrazol-1-yl]-ethyl}-acetamide]
3.3	160		COCCNC(=O)Cn1cc(-c2nc(C3(c4ccc(-c5cnc(N)nc5)cc4)CCC3)no2)cn1 [Example 228, 2-[4-(3-{1-[4-(2-Amino-pyrimidin-5-yl)-phenyl]-cyclobutyl}-[1,2,4]oxadiazol-5-yl)-pyrazol-1-yl]-N-(2-methoxy-ethyl)-acetamide]
3.7	151		Nc1ncc(-c2ccc(C3(c4noc(-c5ccc(=O)[nH]c5)n4)CCC3)cc2)cn1 [Example 91, 5-(3-{1-[4-(2-Amino-pyrimidin-5-yl)-phenyl]-cyclobutyl}-1,2,4-oxadiazol-5-yl)-1H-pyridin-2-one]
4.5	150		CCn1cnc(-c2nc(C3(c4ccc(-c5cnc(N)nc5)cc4)CCC3)no2)c1 [Example 87, 5-(4-{1-[5-(1-Ethyl-1H-imidazol-4-yl)-1,2,4-oxadiazol-3-yl]-cyclobutyl}-phenyl)-pyrimidin-2-ylamine]
1.4	470		Nc1ncc(-c2ccc(C3(c4noc(-c5ccccc5)n4)CCC3)cc2)cn1 [Example 144, 5-{4-[1-(5-Phenyl-1,2,4-oxadiazol-3-yl)-cyclobutyl]-phenyl}-pyrimidin-2-ylamine]
8.4	330		COC(=O)c1cnc(-c2nc(C3(c4ccc(-c5cnc(N)nc5)cc4)CCC3)no2)cn1 [Example 1, 5-(3-{1-[4-(2-amino-pyrimidin-5-yl)-phenyl]-cyclobutyl}-1,2,4-oxadiazol-5-yl)-pyrazine-2-carboxylic acid methyl ester]
2.6	290		CC(C)(O)CNc1ccc(-c2nc(C3(c4ccc(-c5cnc(N)nc5)cc4)CCC3)no2)nn1 [Example 114, 1-[6-(3-{1-[4-(2-Amino-pyrimidin-5-yl)-phenyl]-cyclobutyl}-1,2,4-oxadiazol-5-yl)-pyridazin-3-ylamino]-2-methyl-propan-2-ol]
8.8	160		CN(CCO)C(=O)c1ccc(-c2nc(C3(c4ccc(-c5cnc(N)nc5)cc4)CCC3)no2)cn1 [Example 78, 5-(3-{1-[4-(2-Amino-pyrimidin-5-yl)-phenyl]-cyclobutyl}-1,2,4-oxadiazol-5-yl)-pyridine-2-carboxylic acid (2-hydroxy-ethyl)-methyl-amide]
5.4	120		CN(CC1CCCO1)C(=O)Cn1cc(-c2nc(C3(c4ccc(-c5cnc(N)nc5)cc4)CCC3)no2)cn1 (stereo not shown) [Example 242, 2-[4-(3-{1-[4-(2-Amino-pyrimidin-5-yl)-phenyl]-cyclobutyl}-[1,2,4]oxadiazol-5-yl)-pyrazol-1-yl]-N-methyl-N-(tetrahydro-furan-2-ylmethyl)-acetamide]
1.8	460		CC(C)(C#N)NC(=O)Cn1cc(-c2nc(C3(c4ccc(-c5cnc(N)nc5)cc4)CCC3)no2)cn1 [Example 223, 2-[4-(3-{1-[4-(2-Amino-pyrimidin-5-yl)-phenyl]-cyclobutyl}-[1,2,4]oxadiazol-5-yl)-pyrazol-1-yl]-N-(cyano-dimethyl-methyl)-acetamide]
1.2	62		CN(CCO)c1ccc(-c2nc(C3(c4ccc(-c5cnc(N)nc5)cc4)CCC3)no2)cn1 [Example 181, 2-{[5-(3-{1-[4-(2-Amino-pyrimidin-5-yl)-phenyl]-cyclobutyl}-1,2,4-oxadiazol-5-yl)-pyridin-2-yl]-methyl-amino}-ethanol]
9.3	240		Cn1cc(-c2nc(C3(c4ccc(-c5cnc(N)c(C#N)c5)cc4)CCC3)no2)cn1 [Example 261, 2-Amino-5-(4-{1-[5-(1-methyl-1H-pyrazol-4-yl)-[1,2,4]oxadiazol-3-yl]-cyclobutyl}-phenyl)-nicotinonitrile]
3.2	120		Nc1ncc(-c2ccc(C3(c4noc(-c5cnn(CC(=O)N6CCCCC6)c5)n4)CCC3)cc2)cn1 [Example 127, 2-[4-(3-{1-[4-(2-Amino-pyrimidin-5-yl)-phenyl]-cyclobutyl}-1,2,4-oxadiazol-5-yl)-pyrazol-1-yl]-1-piperidin-1-yl-ethanone]
